Measured values from PMC9667534, “Insertion of Nanoluc into the Extracellular Loops as a Complementary Method To Establish BRET-Based Binding Assays for GPCRs” (ACS Pharmacology & Translational Science, 2022).
Several values for one entry are separate records, joined by “and”; a condition that tells them apart may be missing. Equal entries are not always repeated. Where two headings read alike, the source gives them in different places.

Assays:
[1] = target: Y1R; set-up: method as in ref 24,25,27,30-38 (per cell); details: different expression systems, sodium-containing or sodium-free buffers, ref 24,25,27,30-38 (per cell); cited from earlier work
[2] = target: T1, Nluc-Y1R(Y192) (Homo sapiens, UniProt P25929); test: BRET competition binding with fluorescent ligand 1; details: competition with 1 (c = 0.5 nM, Kd = 0.24 nM), intact HEK293T cells, mean ± SEM
T1 sequence (P25929 1-384): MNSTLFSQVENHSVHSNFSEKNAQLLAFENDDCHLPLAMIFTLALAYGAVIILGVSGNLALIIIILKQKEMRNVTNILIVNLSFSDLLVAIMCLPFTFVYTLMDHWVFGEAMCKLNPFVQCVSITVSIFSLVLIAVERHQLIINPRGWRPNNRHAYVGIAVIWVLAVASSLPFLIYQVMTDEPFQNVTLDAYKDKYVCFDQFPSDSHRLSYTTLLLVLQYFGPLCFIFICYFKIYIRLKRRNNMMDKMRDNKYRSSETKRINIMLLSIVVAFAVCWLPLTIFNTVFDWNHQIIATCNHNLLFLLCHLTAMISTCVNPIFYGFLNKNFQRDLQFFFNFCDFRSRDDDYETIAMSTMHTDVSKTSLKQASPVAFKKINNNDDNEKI
Procedure: (§1) BRET binding experiments were essentially performed as described[18] with the following minor modifications: 1 day prior to the experiment, HEK293T cells stably expressing the respective Nluc-receptor fusion construct were detached from the cell culture dish by trypsinization, centrifuged (500g, 5 min), and resuspended in L-15 with 5% FCS and 10 mM HEPES (pH 7.4). […] Subsequently, 10 μL of assay buffer containing the investigated fluorescent ligand was added to all wells. After an incubation period of 60 min at 27 °C, 10 μL of the Nluc substrate furimazine (prediluted 1:1000 before use) was added and after an equilibration time of 5 min inside the plate reader (prewarmed to 27 °C), the measurement was started.
(§2) A positive control containing only fluorescent ligand and no competitor (100% value), as well as a negative control (buffer, 0% value), was included in every experiment.
(§3) For competition binding experiments, the data were normalized to the BRET ratio obtained for the negative control (buffer, 0% value) and the BRET ratio obtained for wells containing fluorescent ligand, but no competitor (100% value). […] The obtained pIC50 values were subsequently transformed into pKi values by means of the Cheng–Prusoff equation (logarithmic form),[80] for which means and SEMs were calculated.

[3] = target: T2, Nluc-Y1R(Q291) (Homo sapiens, UniProt P25929); test: BRET competition binding with fluorescent ligand 1; details: competition with 1 (c = 0.5 nM, Kd = 0.29 nM), HEK293T cells; mean ± SEM
T2 sequence (P25929 1-384): T1 sequence (P25929 1-384)
Procedure: as §1, §2, §3

[4] = target: T3, Nluc-M1R(G176) (Homo sapiens, UniProt P11229); test: biochemical; format: binding
T3 sequence (P11229 1-460): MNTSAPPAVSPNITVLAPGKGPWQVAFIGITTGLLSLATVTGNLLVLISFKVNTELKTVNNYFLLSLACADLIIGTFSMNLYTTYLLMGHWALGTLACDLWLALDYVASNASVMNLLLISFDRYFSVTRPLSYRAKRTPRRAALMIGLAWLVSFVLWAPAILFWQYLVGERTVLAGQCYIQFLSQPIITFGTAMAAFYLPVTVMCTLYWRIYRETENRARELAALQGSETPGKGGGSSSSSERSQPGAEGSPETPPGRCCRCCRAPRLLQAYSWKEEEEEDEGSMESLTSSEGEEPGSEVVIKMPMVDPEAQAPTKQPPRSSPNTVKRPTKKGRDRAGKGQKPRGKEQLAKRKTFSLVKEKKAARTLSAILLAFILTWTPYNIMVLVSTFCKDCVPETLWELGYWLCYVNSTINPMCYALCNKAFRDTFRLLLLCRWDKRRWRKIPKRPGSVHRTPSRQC
Procedure: BRET binding experiments were essentially performed as described[18] with the following minor modifications: 1 day prior to the experiment, HEK293T cells stably expressing the respective Nluc-receptor fusion construct were detached from the cell culture dish by trypsinization, centrifuged (500g, 5 min), and resuspended in L-15 with 5% FCS and 10 mM HEPES (pH 7.4). […] Subsequently, 10 μL of assay buffer containing the investigated fluorescent ligand was added to all wells.
as §2, §3

[5] = target: M1R; details: cited from earlier work
[6] = target: T4, Nluc-AT1R(S186) (Homo sapiens, UniProt P30556); test: BRET competition binding with fluorescent ligand 3
T4 sequence (P30556 1-359): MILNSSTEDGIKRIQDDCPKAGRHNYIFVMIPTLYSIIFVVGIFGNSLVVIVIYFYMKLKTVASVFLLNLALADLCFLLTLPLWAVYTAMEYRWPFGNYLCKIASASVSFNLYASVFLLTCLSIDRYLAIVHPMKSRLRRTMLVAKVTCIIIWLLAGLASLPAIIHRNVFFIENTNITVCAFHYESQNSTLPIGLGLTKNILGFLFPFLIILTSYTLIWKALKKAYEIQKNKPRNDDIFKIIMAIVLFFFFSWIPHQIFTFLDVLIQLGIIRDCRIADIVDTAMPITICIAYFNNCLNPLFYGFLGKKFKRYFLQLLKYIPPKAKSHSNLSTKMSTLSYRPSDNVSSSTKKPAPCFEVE
Procedure: as §1
A positive control containing only fluorescent ligand and no competitor (100% value), as well as a negative control (buffer, 0% value), was included in every experiment. […]
as §3

[7] = target: AT1R; set-up: method as in ref 41,44,46-49 (per cell); details: different expression systems, ref 41,44,46-49 (per cell); cited from earlier work
[8] = target: T1, Nluc-Y1R(Y192); test: BRET saturation binding at intact HEK293T cells
Procedure: as §1
(§4) For BRET experiments, the “raw BRET ratio” was calculated by dividing the emission detected through the 610 LP filter (acceptor) by the emission detected through the 460 BP filter (donor). A baseline correction was performed for all values by subtracting the BRET ratio of a buffer control, yielding “corrected BRET ratios”. […] The obtained Kd values were transformed into pKd values, for which means and SEMs were calculated.

[9] = target: T2, Nluc-Y1R(Q291); test: BRET saturation binding at intact HEK293T cells
Procedure: as §1, §4

[10] = target: T5, Nluc-Y1R(Nterm) (Homo sapiens, UniProt P25929); test: BRET saturation binding at intact HEK293T cells
T5 construct: expressed in transfected cells; host or cells: HEK293T, stably transfected (pcDNA3.1)
T5 sequence (P25929 1-384): T1 sequence (P25929 1-384)
Procedure: as §1, §4

[11] = target: T6, Nluc-Y1R(Δ1–31) (Homo sapiens, UniProt P25929); test: BRET saturation binding at intact HEK293T cells; details: mean ± SEM, read-out: pKd (BRET) (converted)
T6 construct: fused Nluc to Asp32 of the Y1R via a short linker; expressed in transfected cells; host or cells: HEK293T, stably transfected (pcDNA3.1)
T6 sequence (P25929 32-384): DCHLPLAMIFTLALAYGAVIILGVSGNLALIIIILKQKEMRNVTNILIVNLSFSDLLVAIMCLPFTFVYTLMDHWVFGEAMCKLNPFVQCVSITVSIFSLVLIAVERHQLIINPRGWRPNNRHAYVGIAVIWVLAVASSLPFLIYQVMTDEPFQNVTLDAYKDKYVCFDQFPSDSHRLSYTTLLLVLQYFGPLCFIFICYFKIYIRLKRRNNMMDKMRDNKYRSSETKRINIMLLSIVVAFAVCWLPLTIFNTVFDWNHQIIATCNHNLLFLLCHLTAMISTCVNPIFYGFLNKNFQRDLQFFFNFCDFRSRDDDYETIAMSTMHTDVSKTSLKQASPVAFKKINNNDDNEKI
Procedure: as §1, §4

[12] = target: wild-type Y1R; set-up: method as in PMID 35263541; details: cited from earlier work
[13] = target: T1, Nluc-Y1R(Y192); test: Kinetic BRET binding (association and dissociation); details: 1 c = 0.5 nM
[14] = target: T3, Nluc-M1R(G176); test: as above
[15] = target: T7, Nluc-M1R(Nterm) (Homo sapiens, UniProt P11229); test: BRET saturation binding at intact HEK293T cells; details: mean ± SEM, read-out: pKd (BRET) (converted)
T7 construct: expressed in transfected cells; host or cells: HEK293T, stably transfected (pcDNA3.1)
T7 sequence (P11229 1-460): T3 sequence (P11229 1-460)
Procedure: as §1, §4

[16] = target: T3, Nluc-M1R(G176); test: BRET saturation binding at intact HEK293T cells
Procedure: as §1, §4

[17] = target: NTS1R; set-up: method as in ref 42,44,50-53 (per cell); details: different expression systems, ref 42,44,50-53 (per cell); cited from earlier work
[18] = target: Nluc-NTS1R(T227); test: BRET competition binding with fluorescent ligand 2; set-up: species or system human; details: competition with 2 (c = 5 nM, Kd = 4.82 nM), intact HEK293T cells, mean ± SEM
Sequence of Nluc-NTS1R(T227) (P30989 1-227 limits assumed): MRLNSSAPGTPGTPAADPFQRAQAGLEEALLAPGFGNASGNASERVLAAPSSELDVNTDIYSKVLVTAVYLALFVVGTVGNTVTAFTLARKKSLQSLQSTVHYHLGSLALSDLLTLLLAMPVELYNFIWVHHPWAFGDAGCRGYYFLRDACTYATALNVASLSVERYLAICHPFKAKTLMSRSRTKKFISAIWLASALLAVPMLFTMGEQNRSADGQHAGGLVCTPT
Sequence of Nluc-NTS1R(T227) (P30989 228-418 limits assumed): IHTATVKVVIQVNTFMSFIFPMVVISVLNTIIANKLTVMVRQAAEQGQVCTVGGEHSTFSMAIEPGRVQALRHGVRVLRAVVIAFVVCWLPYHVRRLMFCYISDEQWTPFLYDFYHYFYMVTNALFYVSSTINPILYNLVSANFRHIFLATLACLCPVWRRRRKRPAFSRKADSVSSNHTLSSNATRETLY
Procedure: as §1, §2, §3

[19] = target: Nluc-NTS1R(T227) (human) (UniProt P30989); test: FRET or BRET; BRET saturation binding of the fluorescent ligand at intact HEK293T cells stably expressing the Nluc-receptor construct; 60 min, 27 °C; L-15, 10 mM HEPES pH 7.4, 2% BSA; nonspecific binding with 100-fold excess of SR142948 or candesartan
Sequence of Nluc-NTS1R(T227) (human) (P30989 whole entry): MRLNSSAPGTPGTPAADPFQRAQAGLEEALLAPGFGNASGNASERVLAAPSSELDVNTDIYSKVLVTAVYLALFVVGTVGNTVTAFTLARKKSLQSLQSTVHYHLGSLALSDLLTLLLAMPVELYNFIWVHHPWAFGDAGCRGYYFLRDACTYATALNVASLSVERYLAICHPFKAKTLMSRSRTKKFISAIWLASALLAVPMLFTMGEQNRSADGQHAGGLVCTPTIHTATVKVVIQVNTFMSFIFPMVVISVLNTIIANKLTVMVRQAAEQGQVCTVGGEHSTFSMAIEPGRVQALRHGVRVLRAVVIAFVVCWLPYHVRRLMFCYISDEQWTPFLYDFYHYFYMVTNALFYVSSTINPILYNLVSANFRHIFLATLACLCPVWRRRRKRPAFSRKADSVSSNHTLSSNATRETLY

[20] = target: Nluc-NTS1R(T227) (human) (UniProt P30989); test: FRET or BRET; kinetic BRET binding (association then dissociation) at intact HEK293T cells, 27 °C; fluorescent ligand 10 nM; dissociation started with SR142948 or candesartan (2.5 μM)
[21] = target: Y1R; set-up: method as in PMID 35263541; details: 1 as the fluorescent probe; cited from earlier work
[22] = intact HEK293T cells, mean ± SEM, read-out: pKd (BRET) (converted)
[23] = value used for Cheng–Prusoff, read-out: Kd
[24] = intact HEK293T cells, mean ± SEM

Compound: NC(=O)NCc1ccc(CNC(=O)[C@@H](CCCN=C(N)N)NC(=O)C(c2ccccc2)c2ccccc2)cc1 [BIBO3304]
- reference values (literature) [1]: 8.76–9.60[27],[30],[31]

Compound: NC(N)=NCCC[C@@H](NC(=O)C(c1ccccc1)c1ccccc1)C(=O)NCc1ccc(O)cc1 [BIBP3226]
- reference values (literature) [1]: 8.14–9.00[25],[27],[30],[33],[34]

Compound: CC(C)c1ccccc1S(=O)(=O)c1cc(N)c2ncccc2c1[N+](=O)[O-] [PD160170]
- reference values (literature) [1]: 7.30 and 7.32
- pKi (BRET) [2]: 7.45 ± 0.05

Compound: CCC(=O)NCCNC(=O)N=C(N)NCCC[C@@H](NC(=O)C(c1ccccc1)c1ccccc1)C(=O)NCc1ccc(O)cc1 [UR-MK299]
- reference values (literature) [1]: 10.11[25]
- pKi (BRET) [2]: 10.20 ± 0.06
- pKi (BRET, Nluc-Y1R(Q291)) [3]: 10.06 ± 0.07

Compound: C=CC[N@@+]12CC[C@@]34c5ccccc5N5/C=C6/[C@H]7C[C@H]8[C@@]9(CC[N@@+]8(CC=C)C/C7=C/CO)c7ccccc7N(/C=C(/[C@@H](C[C@@H]31)/C(=C\CO)C2)[C@H]54)[C@@H]69 [alcuronium, Alcuronium]
- displacement of fluorescent ligand 4 ([4]; Nluc-M1R(G176)): displace the dualsteric ligand 4 completely
- reference values (literature) [5]: 5.01,[57] 5.25[55]

Compound: CCOc1nc2cccc(C(=O)O)c2n1Cc1ccc(-c2ccccc2-c2nnn[nH]2)cc1 [candesartan, Candesartan]
- Ki [6]: 1.51 nM
- reference values (literature) [7]: 8.46–10.28[41],[44],[46]−[48]

Compound: CCC(=O)NCCNC(=O)N=C(N)NCCC[C@@H](NC(=O)[C@@H](c1ccccc1)c1cccc(OCCCC[n+]2c(C)cc(/C=C/C=C/c3ccc(N(C)C)cc3)cc2C)c1)C(=O)NCc1ccc(O)cc1 [compound 1]
- Kd [8, 22]: 0.24 nM
- Kd [8, 23]: 0.24 nM
- Kd [9, 22]: 0.288 nM
- Kd [9, 23]: 0.29 nM
- specific signal in BRET saturation binding [10]: no specific signal was detectable
- Kd [11]: 2.88 nM
- pKi (radioligand competition binding) [12]: 9.95
- time of association [13]: ≤ 60 min
- koff [13, 24]: 6.67e-05 s⁻¹
- kon [13, 24]: 2.38e+06 M⁻¹ s⁻¹
- fraction still bound after initiation of dissociation ([13]; after 4 h, dissociation by BIBO3304): ≈ 40%
- Kd ([13]; kinetically derived, mean ± SEM, read-out: pKd kinetic (converted)): 0.024 nM

Compound: Cc1cc(/C=C/C=C/c2ccc(N(C)C)cc2)cc(C)[n+]1CCNC(=O)CCc1cn(CCCCC2CCN(CC(=O)N3c4ccccc4NC(=O)c4ccccc43)CC2)cn1 [compound 4]
- koff [14]: 0.00297 s⁻¹
- kon [14]: 367000 M⁻¹ s⁻¹
- Kd ([14]; kinetically derived, Nluc-M1R(G176), 4 c = 5 nM, mean ± SEM, read-out: pKd kinetic (converted)): 9.12 nM
- Kd [15]: 6.03 nM
- Kd [16, 22]: 2.24 nM
- Kd [16, 23]: 2.26 nM

Compound: C[N+](C)(C)CC#CCOC1=NOCC1 [iperoxo]
- pKi (BRET) [4]: 7.00 ± 0.07
- reference values (literature) [5]: 6.46[56]

Compound: CCCCc1nc(Cl)c(CO)n1Cc1ccc(-c2ccccc2-c2nn[nH]n2)cc1 [losartan]
- reference values (literature) [7]: 7.23–8.00[41],[44],[46],[48],[49]

Compound: O=C1CCCN1CC#CCN1CCCC1 [oxotremorine]
- Ki [4]: 1000 nM
- reference values (literature) [5]: 5.48–5.86[55],[57],[59]

Compound: BMS193885
- reference values (literature) [1]: 7.66–8.48[27],[35],[36]
- pKi (BRET) [2]: 8.23 ± 0.01

Compound: Neurotensin(8–13) [NT(8–13)]
- reference values (literature) [17]: 8.27–9.85[42],[44],[50]−[52]

Compound: SR142948
- reference values (literature) [17]: 8.05–8.99[42],[44],[50],[53]
- pKi (BRET) [18]: 7.93 ± 0.12

Compound: UR-AP178 (peptide)
- pKd [19]: 8.32
- koff [20]: 0.0138 s⁻¹
- kon [20]: 2e+06 M⁻¹ s⁻¹
- pKd kinetic [20]: 8.16

Compound: angiotensin II
- time until pIC50 value stabilized ([6]; kinetic BRET competition binding with 3 at Nluc-AT1R(S186)): ≤ 45 min
- reference values (literature) [7]: 7.61–9.62[44],[46]−[49]

Compound: porcine neuropeptide Y [pNPY]
- reference values (literature) [1]: 7.58–9.75[24],[25],[27],[30]−[32]
- pKi (flow cytometry-based competition binding) [21]: 7.58
